Results: ChEMBL document CHEMBL5154863, “Design and synthesis of quinolinium-based derivatives targeting FtsZ for antibacterial evaluation and mechanistic study” (Eur J Med Chem, 2022)
Activity calls are given as the source filed them. No cut-off for these calls is given here.

Tests used:
[1] = biological target: T1, Cell division protein FtsZ (Staphylococcus aureus) (UniProt P0A031); experiment: Induction of Staphylococcus aureus FtsZ polymerization expressed in Escherichia coli BL21 (DE3) assessed as increase in absorbance at 2 to 8 ug/ml in presence of GTP by microplate reader method; settings: dose 2-8 µg/ml, DDE = dose-dependent effect
T1 sequence (whole entry): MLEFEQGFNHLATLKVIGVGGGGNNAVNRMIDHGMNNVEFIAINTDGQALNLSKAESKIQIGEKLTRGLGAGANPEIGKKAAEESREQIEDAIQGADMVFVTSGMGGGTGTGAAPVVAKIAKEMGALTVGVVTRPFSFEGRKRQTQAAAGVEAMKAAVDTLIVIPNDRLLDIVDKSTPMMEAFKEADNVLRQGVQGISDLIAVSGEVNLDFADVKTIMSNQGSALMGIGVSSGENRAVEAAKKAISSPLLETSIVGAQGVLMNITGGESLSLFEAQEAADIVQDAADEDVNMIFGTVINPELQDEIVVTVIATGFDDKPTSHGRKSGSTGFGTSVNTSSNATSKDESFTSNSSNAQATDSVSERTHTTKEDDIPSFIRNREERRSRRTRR

[2] = Ratio of MBC for bactericidal activity against Bacillus subtilis CMCC (B) 63501 to MIC for antibacterial activity against Bacillus subtilis CMCC (B) 63501; type: functional
Enterococcus faecium [3] = experiment: Antibacterial activity against vancomycin-resistant Enterococcus faecium clinical isolate assessed as inhibition of bacterial growth incubated for 20 to 24 hrs by broth micro dilution method; type: functional; settings: time 20-24 hrs
Staphylococcus aureus [4] = experiment: Induction of drug resistance against Staphylococcus aureus ATCC 29213 assessed as fold increase in MIC after 16 passage; type: functional
Klebsiella pneumoniae = experiment: Antibacterial activity against NDM-1 expressing Klebsiella pneumoniae ATCC BAA 2470 assessed as inhibition of bacterial growth incubated for 20 to 24 hrs by broth micro dilution method; type: functional; settings: time 20-24 hrs
Escherichia coli = experiment: Antibacterial activity against NDM-1 expressing Escherichia coli ATCC BAA2469 assessed as inhibition of bacterial growth incubated for 20 to 24 hrs by broth micro dilution method; type: functional; settings: time 20-24 hrs
Enterococcus faecium [5] = experiment: Antibacterial activity against Enterococcus faecium ATCC 49624 assessed as inhibition of bacterial growth incubated for 20 to 24 hrs by broth micro dilution method; type: functional; settings: time 20-24 hrs
Staphylococcus aureus [6] = experiment: Antibacterial activity against Staphylococcus aureus ATCC 29213 assessed reduction in viable bacterial count upto 4 times MIC measured after 8 hrs by time-kill kinetics assay; type: functional
[7] = Ratio of MBC for bactericidal activity against Staphylococcus aureus ATCC 43300 to MIC for antibacterial activity against Staphylococcus aureus ATCC 43300; type: functional
Staphylococcus aureus [8] = experiment: Bactericidal activity against Staphylococcus aureus ATCC 29213 assessed as inhibition of bacterial growth incubated for 24 hrs by resazurin dye based microtiter plate assay; type: functional
[9] = biological target: T1, Cell division protein FtsZ (Staphylococcus aureus); experiment: Binding affinity to Staphylococcus aureus FtsZ assessed as decrease in other structure at 8 ug/ml for 30 mins by circular dichroism method (reference value: 34.5 %); set-up: scale not given: the % may be the effect or the level left; settings: dose 8.0 µg/ml
Staphylococcus aureus [10] = experiment: Antibacterial activity against methicillin-resistant Staphylococcus aureus ATCC BAA41 assessed as fractional inhibitory concentration index incubated for 24 hrs by checker board assay; type: functional
Bacillus subtilis = experiment: Induction of drug resistance against Bacillus subtilis CMCC (B) 63501 measured after 16 passages; type: functional; settings: dose <= 64.0 µg/ml, time 30.0 min

In the case of `CC1CCN(c2cc(/C=C/c3ccc(N(C)C)cc3)[n+](C)c3ccccc23)CC1.[I-]`, the Activity [1] is reported as “Dde”, the Ratio [2] is reported as 1 and the MIC (Enterococcus faecium [3]) is reported as 4 µg/mL. For the same compound, the fold change (FC) (Staphylococcus aureus [4]) was 8, the MIC (Klebsiella pneumoniae) was > 64 µg/mL and the MIC (Escherichia coli) was 64 µg/mL. For the same compound, the MIC (Enterococcus faecium [5]) was 8 µg/mL, the Activity (Staphylococcus aureus [6]) was 1000 CFU/ml and the Ratio [7] was >4. For the same compound, the MBC (Staphylococcus aureus [8]) was 8 µg/mL, the Activity [9] was 15.1% and the “fractional inhibitory concentration index (FICI)” value (Staphylococcus aureus [10]) was 0.3125. For the same compound, the Activity (Bacillus subtilis) was “Active”.
